Measurements from patent US20110020925A1, “NEW MODULATING MOLECULES FOR AN IMPROVED REGULATED EXPRESSION SYSTEM” (BAYER SCHERING PHARMA AKTIENGESELLSCHAFT, priority 2007, published 2011).
Substitutions are numbered along the chain they refer to.

Assays:
[1] = test system: IP-10; experiment: MFP dose/response and plasmid re-injection with BRES-1/mIFN plasmid pGT26 in vivo, IP-10 ELISA; design: species or system C57BI/6 mice; conditions: MFP 0.0033 mg/kg i.p. days 7-10
Protocol: The inducible mIFN-γ expression plasmid pGT26 was injected and electroporated on day 0 into hind limb muscles of C57BI/6 mice. […] Bleeds were taken on day 88 and 200, respectively. Serum was assayed for the chemokine IP-10 by ELISA. The results are shown as the mean (n=5 animals per group).
In addition, a complete pharmacokinetic profile of the expression of the therapeutic molecule (TM) can be performed using an activator molecule (AM) to determine the AM dose/response, as well as the kinetics of induction of TM expression following AM administration. […] Blood was collected at days 11 post-injection, and serum samples were assayed for IP-10 (see “Experimental Design” below for details). […] By day 67 the level of IP-10 had decreased several-fold from the day 11 level, so the plasmid DNA was re-injected at day 77.
For safety studies in humans, a complete characterization of the rate at which the activator molecule (AM) and TM expression can be turned “off” following withdrawal of the AM can be performed. The frequency of AM dosing necessary to achieve steady state levels of the TM can be evaluated.
• DNA solutions: Each mouse received 250 ug of plasmid DNA in 150 ul PBS. • DNA delivery: Adult male C57BI/6 mice were injected bilaterally on day 0 with 250 ug plasmid DNA per mouse in 150 ul PBS. […]

[2] = molecular target: T1, V729L/W755A RP (pBRES) (Homo sapiens, UniProt P06401, V729L/W755A); experiment: Induction of luciferase, mSEAP or hIFNb from pBRES with V729L/W755A RP in C2C12 cells; type: cell-based, mouse; conditions: every orientation, three transgenes
T1 construct: expressed in transfected cells; host or cells: C2C12 mouse muscle cells
T1 sequence (P06401 640-914 V729L/W755A): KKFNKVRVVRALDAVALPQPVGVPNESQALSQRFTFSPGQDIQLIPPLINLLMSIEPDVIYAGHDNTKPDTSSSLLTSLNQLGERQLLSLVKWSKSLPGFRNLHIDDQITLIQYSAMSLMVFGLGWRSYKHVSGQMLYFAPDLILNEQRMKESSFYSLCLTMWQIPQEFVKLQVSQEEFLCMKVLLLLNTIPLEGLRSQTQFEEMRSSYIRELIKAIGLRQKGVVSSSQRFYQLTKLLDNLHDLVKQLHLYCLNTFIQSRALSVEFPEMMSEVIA

[3] = molecular target: T2, original RP (pGT45) (Homo sapiens, UniProt P06401); experiment: In vivo mSEAP serum level after inducer, mice with pGT45 (original RP); conditions: 0.33 mg/kg or 1 mg/kg i.p. days 7-10
T2 construct: expressed in transfected cells; host or cells: mouse hind limb muscle in vivo (plasmid injection plus electroporation)
T2 sequence (P06401 640-914): T1 sequence (P06401 640-914 V729L/W755A) with L90V, A116W
Protocol: Upon the conclusion of in vitro testing, the divergent orientation of mSEAP and RP in pGT45 and pGT1048 were tested side-by-side in a mouse study. Mice were injected with plasmid DNA in the hind limbs and electroporation was used to deliver the DNA into the muscle cells on day 0. […] Six hours after the last injection on day 10, samples of blood were collected from the tail veins of the mice. mSEAP levels in the serum were measured to determine the level of this reporter expression following induction with compounds. Additional blood samples were collected prior to injection of inducers on day 7, as well as on days 18 and 25 to monitor the drop off of mSEAP expression.

[4] = test system: murine acute EAE model; experiment: Mouse acute EAE model, clinical scoring; type: in vivo, SJL mice; conditions: for clinical scores of EAE, positive controls: i.p. twice daily, Mesopram 9 mg/kg, Prednisolone 2.5 mg/kg
[5] = molecular target: GAL-4 DBS; conditions: read-out: Kd for binding; cited from earlier work
[6] = test system: Mx1 RNA; experiment: Mx1 RNA induction in L929 cells (TaqMan RT-PCR); type: cell-based, murine
Protocol: FIG. 5 illustrates Mx1 RNA induction in vitro (in L929 cells) by mIFN-ÿ. L929 cells were seeded at 5×10^5 cells in 6 well plates and stimulated with increasing amounts of purified recombinant mIFN-ÿ protein. Four hours after treatment the cells were harvested, RNA isolated, and Mx1 RNA quantitated by TaqMan analysis. Mx1 RNA expression is plotted as the fold increase relative to GAPDH RNA.
A quantitative PCR/RT-PCR assay was developed to quantitate the levels of Mx1 mRNA in murine PBMC's. Specifically, peripheral blood mononuclear cells (PBMCs) were isolated from mice treated with either mIFN-β protein or following gene-based delivery of the mIFN-β gene. Blood samples obtained from treated mice were centrifuged on a ficoll cushion for 25 minutes at 2,000 rpm. Purified PBMCs were pelleted and RNA for the Mx1 assay was purified using the “RNAeasy” mini extraction kit from Qiagen. The RNA was stored in H2O at −80° C. Mx1 RT-PCR was performed using TaqMan® chemistry and analysis was done on the Applied Biosystems (ABI) PRISM® 7700 Sequence Detection instrument. For reverse transcription of the RNA and amplification of cDNA, the “One-step TaqMan® RNA” kit from ABI was used. […] The samples were analyzed with an Mx1-specific probe/primer combination. Mx1 expression was normalized to GAPDH expression measured in parallel using a standard assay from ABI. […]

[7] = test system: Mx1 RNA; experiment: Mx1 RNA induction in PBMCs of mice (quantitative RT-PCR) after mIFN-β protein or gene delivery; type: in vivo, C57BI/6 mice
Protocol: C57BI/6 mice were administered 15, 150, or 500 ng of purified recombinant mIFN-ÿ protein (specific activity-2.0×108 units/mg) by either i.v. (via tail vein) or i.m. injection (n=3 mice per group). At the specified time points post-injection mice were bled, and RNA was isolated from PBMCs. Mx1 RNA was measured by quantitative RT-PCR. The fold increase in Mx1 RNA is expressed relative to GAPDH values measured in the same samples. The controls include naive mice (N), and mice injected with the vehicle buffer only followed by Mx1 analysis at 2 hours (V2h) or 4h (V4h) post-injection. Each column represents the mean value+/−standard deviation.
A quantitative PCR/RT-PCR assay was developed to quantitate the levels of Mx1 mRNA in murine PBMC's. Specifically, peripheral blood mononuclear cells (PBMCs) were isolated from mice treated with either mIFN-β protein or following gene-based delivery of the mIFN-β gene. Blood samples obtained from treated mice were centrifuged on a ficoll cushion for 25 minutes at 2,000 rpm. […] The samples were analyzed with an Mx1-specific probe/primer combination. Mx1 expression was normalized to GAPDH expression measured in parallel using a standard assay from ABI.
B. Bolus Injection of mIFN-β Protein Induces Transient Biomarker Response In Vivo: The biomarker response after bolus injection of purified recombinant mIFN-β was measured in these studies.

[8] = test system: IP-10; experiment: IP-10 plasma level in mice (ELISA) after mIFN-β protein or gene delivery; type: in vivo, C57BI/6 mice
Protocol: (§1) FIG. 7 illustrates induction levels of IP-10 (A) and JE (B) following i.v. or i.m. injection of murine IFN-ÿ protein. C57BI/6 mice were administered 15, 150, or 500 ng of purified recombinant mIFN-ÿ protein (specific activity=2.0×108 units/mg) by either i.v. (via tail vein) or i.m. injection (n=3 mice per group). The mice were bled at 2, 4, 6, 12, 24, and 48 hours post-injection, and the plasma levels of IP-10 and JE were measured by ELISA (R&D Systems).
FIG. 8 illustrates the induction of IP-10 following intramuscular injection of AAV-1-mIFN-ÿ DNA or mIFN-ÿ plasmid DNA with electroporation (EP) in mice. Normal mice (C57BI/6) were injected i.m. with either AAV-1-mIFN-ÿ (5×10^9 viral particles), or mIFN-ÿ plasmid DNA (150 ug) with electroporation. Mice were bled at the indicated time points and IP-10 levels in plasma were determined by ELISA. Each column represents the mean value+/−the standard deviation (n=5 mice per group).
C. Chemokines IP-10 and JE: During the analysis of plasma samples from mice treated with mIFN-β protein, two murine chemokines, IP-10 and JE the murine homologue of MCP-1 (monocyte chemoattractant protein, see e.g., Yoshimura, T (1989) FEBS Lett 244: 487-93), were also identified to have a similar response and activation to mIFN-β as Mx1 RNA (FIGS. 7 and 8). […]
The plasma samples were also analyzed for IP-10 and JE (FIGS. 7 and 8). […]

[9] = test system: JE; experiment: JE plasma level in mice (ELISA) after mIFN-β protein or gene delivery; type: in vivo, C57BI/6 mice; conditions: each of three doses, i.v. or i.m.
Protocol: as §1
C. Chemokines IP-10 and JE: During the analysis of plasma samples from mice treated with mIFN-β protein, two murine chemokines, IP-10 and JE the murine homologue of MCP-1 (monocyte chemoattractant protein, see e.g., Yoshimura, T (1989) FEBS Lett 244: 487-93), were also identified to have a similar response and activation to mIFN-β as Mx1 RNA (FIGS. 7 and 8). A strong induction of IP-10 and JE was seen 2 hours after administration of mIFN-β protein either i.v. or i.m. IP-10 levels increased 3000-fold at the high dose delivered i.v. With each of the three mIFN-β doses tested, a rapid drop to background in the plasma levels of IP-10 and JE was observed by 24 hours.

[10] = Luciferase reporter gene assay for activity of purified mIFN-β protein; type: cell-based; conditions: commercial mIFN-β reference standard
Protocol: Specifically, the gene encoding mIFN-β was cloned into a pCEP4 expression vector (Invitrogen). The expression plasmid encoding mIFN-β was transiently transfected into 293E cells (Edge Biosystems) using X-tremeGene Ro-1539 Transfection Reagent (Roche). Murine IFN-β protein was purified from the medium by ion-exchange chromatography and by hydrophobic-interaction chromatography. The product was sialyzed and concentrated against dilution buffer (50 mM sodium acetate, pH 5.5, 150 mM sodium chloride, and 5% polypropylene glycol) and sterile filtered. Aliquots of the purified protein were stored at −80° C. The activity of the purified protein was assessed using a luciferase reporter gene assay (Hardy et al. (2001) Blood 97:473-482), using a commercial mIFN-β reference standard from Access Biomedical (San Diego, Calif.). The specific activity of the purified protein was 2×10^8 units/mg.

CC#C[C@]1(O)CC[C@H]2[C@@H]3CCC4=CC(=O)CCC4=C3[C@@H](c3ccc(N(C)C)cc3)C[C@@]21C [MFP, 11-(4-dimethylaminophenyl)-17-hydroxy-17c-propynyl-4,9-estradiene-3-one]
IP-10 levels at lowest MFP dose [1]: no increase over background IP-10 levels
activity of engineered RP when induced [2]: retained full activity
response (serum mSEAP) of mice to inducer [3]: responded well

CCCOc1cc([C@]2(C)CNC(=O)O2)ccc1OC [Mesopram]
clinical scores of EAE, positive controls ([4]; first study): significantly decreased clinical scores
clinical scores of EAE, positive controls ([4]; second study): significantly decreased clinical scores

C[C@]12C=CC(=O)C=C1CC[C@@H]1[C@@H]2[C@@H](O)C[C@@]2(C)[C@H]1CC[C@]2(O)C(=O)CO [Prednisolone]
clinical scores of EAE, positive controls ([4]; first study): significantly decreased clinical scores
clinical scores of EAE, positive controls ([4]; second study): significantly decreased clinical scores

GAL-4 residues 1-100: N-terminal DNA binding domain fragment of yeast GAL-4 protein
Kd [5]: 3 nM

mIFN-β: purified recombinant murine interferon-β protein expressed in 293E cells
increase in the level of Mx1 RNA [6]: 100 fold
EC50 of Mx1 RNA induction ([6]; 4 hours treatment): approximately 50 pg/ml
time of highest Mx1 expression levels after injection ([7]; bolus protein): 2 h
time after injection beyond which no Mx1 RNA levels above background were detected ([7]; bolus protein i.m.): 12 h
time of drop to background of IP-10 plasma level ([8]; each of three doses, i.v. or i.m.): ≤ 24 h
increase of IP-10 levels ([8]; high dose delivered i.v.): 3000 fold
time of drop to background of JE plasma level [9]: ≤ 24 h
specific activity of the purified protein [10]: 2×10^8 units/mg
clinical scores of EAE compared to vehicle treated mice ([4]; first study, 30,000 units s.c. every other day): did not reach statistical significance
clinical scores of EAE compared with vehicle treated mice ([4]; first study, 100,000 units s.c. every other day): significantly decreased clinical scores
clinical scores compared to the vehicle control treated mice ([4]; second study, 100,000 Units s.c. every other day): significantly decreased clinical scores
